The values that follow come from patent publication US20240368214A1, “POSITIVE NMDA-MODULATING COMPOUNDS AND METHODS OF USE THEREOF” (SAGE THERAPEUTICS, INC., priority 2021, published 2024).

The assay deals with T1, recombinant human GluN1/GluN2A receptor (Homo sapiens, UniProt Q05586+Q12879).
T1 construct: expressed in transfected cells; host or cells: HEK293, tetracycline-inducible expression
Briefly: Whole-cell patch clamp of mammalian cells (Syncropatch 384i), NMDA modulation. As to conditions: HEK293 cells, human GluN1/GluN2A, glutamate 1 μM / glycine 100 μM, -80 mV, peak amplitude increase; for EC50: read-out: EC50. The assay is classed as cell-based. The procedure, abridged: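 HEK293 cells with tetracycline-induced (50 ng/ml, 18–24 h) human GluN1/GluN2A, automated whole-cell recording at −80 mV, pH 7.4 external. After 120 s compound pre-incubation, compound applied with glutamate 1 μM/glycine 100 μM; fold peak increase (Icomp/Icontrol)−1 over 8 concentrations fitted four-parameter logistic.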
A general note: Patch clamp records ionic current or voltage across a cell membrane.

Where two headings read alike, the source gives them in different places. Bounds are passed on as bounds.

T1 sequence (Q12879 23-1464, other chains not shown): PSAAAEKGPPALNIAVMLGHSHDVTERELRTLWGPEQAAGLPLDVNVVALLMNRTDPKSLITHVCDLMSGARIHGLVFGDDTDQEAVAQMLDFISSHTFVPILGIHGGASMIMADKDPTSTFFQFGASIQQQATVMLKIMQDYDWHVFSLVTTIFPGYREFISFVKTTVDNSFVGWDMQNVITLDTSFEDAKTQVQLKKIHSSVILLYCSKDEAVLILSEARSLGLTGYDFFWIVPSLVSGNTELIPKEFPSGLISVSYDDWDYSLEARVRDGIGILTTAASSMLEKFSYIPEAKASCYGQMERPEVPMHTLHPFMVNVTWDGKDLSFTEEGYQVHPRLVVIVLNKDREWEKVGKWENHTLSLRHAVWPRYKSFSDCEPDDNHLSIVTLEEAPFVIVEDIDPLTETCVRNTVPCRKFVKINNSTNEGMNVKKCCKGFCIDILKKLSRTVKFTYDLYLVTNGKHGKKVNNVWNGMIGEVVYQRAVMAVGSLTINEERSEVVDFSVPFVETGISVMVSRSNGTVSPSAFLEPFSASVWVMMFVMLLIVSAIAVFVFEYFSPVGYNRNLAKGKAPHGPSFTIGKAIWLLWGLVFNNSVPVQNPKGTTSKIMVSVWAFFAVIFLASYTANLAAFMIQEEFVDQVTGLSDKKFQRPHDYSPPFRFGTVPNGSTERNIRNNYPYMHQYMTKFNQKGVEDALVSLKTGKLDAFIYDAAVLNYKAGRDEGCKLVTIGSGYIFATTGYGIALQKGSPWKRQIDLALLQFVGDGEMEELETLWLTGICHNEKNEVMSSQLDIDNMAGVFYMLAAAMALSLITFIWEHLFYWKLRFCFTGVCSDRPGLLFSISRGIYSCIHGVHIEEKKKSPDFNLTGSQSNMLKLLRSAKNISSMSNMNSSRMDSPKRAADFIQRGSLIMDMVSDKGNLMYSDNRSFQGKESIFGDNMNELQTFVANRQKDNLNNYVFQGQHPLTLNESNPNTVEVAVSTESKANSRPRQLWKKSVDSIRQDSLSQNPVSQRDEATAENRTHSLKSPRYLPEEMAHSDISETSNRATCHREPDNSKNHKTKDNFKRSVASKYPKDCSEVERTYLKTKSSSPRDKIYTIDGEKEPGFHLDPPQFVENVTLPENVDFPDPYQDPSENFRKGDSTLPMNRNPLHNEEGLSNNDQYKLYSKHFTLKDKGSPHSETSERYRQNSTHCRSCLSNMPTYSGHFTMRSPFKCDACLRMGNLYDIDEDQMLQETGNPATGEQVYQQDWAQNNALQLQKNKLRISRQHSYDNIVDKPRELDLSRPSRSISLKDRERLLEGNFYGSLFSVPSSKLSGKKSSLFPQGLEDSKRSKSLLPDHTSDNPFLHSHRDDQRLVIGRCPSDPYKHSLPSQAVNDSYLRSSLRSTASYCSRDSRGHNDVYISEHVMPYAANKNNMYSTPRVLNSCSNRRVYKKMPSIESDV

A word on the EC50: it is the concentration that produces a half-maximal response. Consider `CC[C@]1(O)CC[C@@]2(C)C(=CC[C@H]3[C@@H]4CC[C@H]([C@H](C)CC[C@H](O)C5(C#N)CCC5)[C@@]4(C)CC[C@@H]32)C1` [Compound C-18, 1-((1S,4R)-4-((3S,8S,9S,10R,13R,14S,17R)-3-ethyl-3-hydroxy-10,13-dimethyl-2,3,4,7,8,9,10,11,12,13,14,15,16,17-tetradecahydro-1H-cyclopenta[a]phenanthren-17-yl)-1-hydroxypentyl)cyclobutane-1-carbonitrile], for which the concentration giving a half-maximal response (EC50) (Table C-2) was in the range of 100 to 500 nM.

Consider `CC[C@]1(O)CC[C@@]2(C)C(=CC[C@H]3[C@@H]4CC[C@H]([C@H](C)CC[C@@H](O)C5(C#N)CCC5)[C@@]4(C)CC[C@@H]32)C1` [Compound C-19, 1-((1R,4R)-4-((3S,8S,9S,10R,13R,14S,17R)-3-ethyl-3-hydroxy-10,13-dimethyl-2,3,4,7,8,9,10,11,12,13,14,15,16,17-tetradecahydro-1H-cyclopenta[a]phenanthren-17-yl)-1-hydroxypentyl)cyclobutane-1-carbonitrile], for which, where the note is “Table C-2”, the concentration for a half-maximal effect (EC50) is 1 to 100 nM.

For the compound `CC[C@]1(O)CC[C@@]2(C)C(=CC[C@H]3[C@@H]4CC[C@H]([C@H](C)CC[C@H](O)C5(C#N)CC5)[C@@]4(C)CC[C@@H]32)C1` [Compound C-20, 1-((1S,4R)-4-((3S,8S,9S,10R,13R,14S,17R)-3-ethyl-3-hydroxy-10,13-dimethyl-2,3,4,7,8,9,10,11,12,13,14,15,16,17-tetradecahydro-1H-cyclopenta[a]phenanthren-17-yl)-1-hydroxypentyl)cyclopropane-1-carbonitrile], under “Table C-2”, the EC50 lay in the range of 100 to 500 nM.

With `CC[C@]1(O)CC[C@@]2(C)C(=CC[C@H]3[C@@H]4CC[C@H]([C@H](C)CC[C@@H](O)C5(C#N)CC5)[C@@]4(C)CC[C@@H]32)C1` [Compound C-21, 1-((1R,4R)-4-((3S,8S,9S,10R,13R,14S,17R)-3-ethyl-3-hydroxy-10,13-dimethyl-2,3,4,7,8,9,10,11,12,13,14,15,16,17-tetradecahydro-1H-cyclopenta[a]phenanthren-17-yl)-1-hydroxypentyl)cyclopropane-1-carbonitrile], the EC50 (Table C-2) lay within 1 to 100 nM.

A word on the Emax: it is the maximal effect, on the per cent scale that the assay sets. With `C[C@H](CC[C@H](O)C1(C#N)CC1)[C@H]1CC[C@H]2[C@@H]3CC=C4C[C@@](C)(O)CC[C@]4(C)[C@H]3CC[C@]12C` [Compound C-22, 1-((1S,4R)-1-hydroxy-4-((3S,8S,9S,10R,13R,14S,17R)-3-hydroxy-3,10,13-trimethyl-2,3,4,7,8,9,10,11,12,13,14,15,16,17-tetradecahydro-1H-cyclopenta[a]phenanthren-17-yl)pentyl)cyclopropane-1-carbonitrile], under “Table C-2”, the Emax is under 100% and the EC50 lay within 1 to 100 nM.

Turning to `C[C@H](CC[C@@H](O)C1(C#N)CC1)[C@H]1CC[C@H]2[C@@H]3CC=C4C[C@@](C)(O)CC[C@]4(C)[C@H]3CC[C@]12C` [Compound C-23, 1-((1R,4R)-1-hydroxy-4-((3S,8S,9S,10R,13R,14S,17R)-3-hydroxy-3,10,13-trimethyl-2,3,4,7,8,9,10,11,12,13,14,15,16,17-tetradecahydro-1H-cyclopenta[a]phenanthren-17-yl)pentyl)cyclopropane-1-carbonitrile], the EC50 (Table C-2) fell in the range of 1 to 100 nM.

Take `C[C@H](CC[C@@H](O)C1(C#N)CCC1)[C@H]1CC[C@H]2[C@@H]3CC=C4C[C@@](C)(O)CC[C@]4(C)[C@H]3CC[C@]12C` [Compound C-24, 1-((1R,4R)-1-hydroxy-4-((3S,8S,9S,10R,13R,14S,17R)-3-hydroxy-3,10,13-trimethyl-2,3,4,7,8,9,10,11,12,13,14,15,16,17-tetradecahydro-1H-cyclopenta[a]phenanthren-17-yl)pentyl)cyclobutane-1-carbonitrile]: the EC50 (Table C-2) is 1 to 100 nM.

As to `C[C@H](CC[C@H](O)C1(C#N)CCC1)[C@H]1CC[C@H]2[C@@H]3CC=C4C[C@@](C)(O)CC[C@]4(C)[C@H]3CC[C@]12C` [Compound C-25, 1-((1S,4R)-1-hydroxy-4-((3S,8S,9S,10R,13R,14S,17R)-3-hydroxy-3,10,13-trimethyl-2,3,4,7,8,9,10,11,12,13,14,15,16,17-tetradecahydro-1H-cyclopenta[a]phenanthren-17-yl)pentyl)cyclobutane-1-carbonitrile], under “Table C-2”, the Emax was under 100% and the EC50 fell in the range of 1 to 100 nM.

For `CC[C@]1(O)CC[C@]2(C)C3=CC[C@]4(C)[C@@H]([C@H](C)CC[C@H](O)C5(C#N)CC5)CC[C@H]4[C@@H]3CC[C@H]2C1` [Compound C-26, 1-((1S,4R)-4-((3S,5S,8S,10S,13R,14S,17R)-3-ethyl-3-hydroxy-10,13-dimethyl-2,3,4,5,6,7,8,10,12,13,14,15,16,17-tetradecahydro-1H-cyclopenta[a]phenanthren-17-yl)-1-hydroxypentyl)cyclopropane-1-carbonitrile], the EC50 runs as follows: (Table C-2) 1 to 100 nM; (Table E-2) 1 to 100 nM.

As to `CC[C@]1(O)CC[C@]2(C)C3=CC[C@]4(C)[C@@H]([C@H](C)CC[C@@H](O)C5(C#N)CC5)CC[C@H]4[C@@H]3CC[C@H]2C1` [Compound C-27, 1-((1R,4R)-4-((3S,5S,8S,10S,13R,14S,17R)-3-ethyl-3-hydroxy-10,13-dimethyl-2,3,4,5,6,7,8,10,12,13,14,15,16,17-tetradecahydro-1H-cyclopenta[a]phenanthren-17-yl)-1-hydroxypentyl)cyclopropane-1-carbonitrile], the concentration giving a half-maximal response (EC50) was 1 to 100 nM (Table C-2) and 1 to 100 nM (Table E-2).

Turning to `CC[C@]1(O)CC[C@]2(C)C3=CC[C@]4(C)[C@@H]([C@H](C)CC[C@@H](O)C(C)(C)C#N)CC[C@H]4[C@@H]3CC[C@H]2C1` [Compound C-28, (3R,6R)-6-((3S,5S,8S,10S,13R,14S,17R)-3-ethyl-3-hydroxy-10,13-dimethyl-2,3,4,5,6,7,8,10,12,13,14,15,16,17-tetradecahydro-1H-cyclopenta[a]phenanthren-17-yl)-3-hydroxy-2,2-dimethylheptanenitrile], the 50% effective concentration (EC50) by setting is: (Table C-2) 1 to 100 nM; (Table E-2) 1 to 100 nM.

Regarding `CC[C@]1(O)CC[C@]2(C)C3=CC[C@]4(C)[C@@H]([C@H](C)CC[C@H](O)C(C)(C)C#N)CC[C@H]4[C@@H]3CC[C@H]2C1` [Compound C-29, (3S,6R)-6-((3S,5S,8S,10S,13R,14S,17R)-3-ethyl-3-hydroxy-10,13-dimethyl-2,3,4,5,6,7,8,10,12,13,14,15,16,17-tetradecahydro-1H-cyclopenta[a]phenanthren-17-yl)-3-hydroxy-2,2-dimethylheptanenitrile], the half-maximal effective concentration (EC50) fell in the range of 1 to 100 nM (Table C-2) and 1 to 100 nM (Table E-2).

On to `C[C@H](CC[C@H](O)C1(C#N)CCC1)[C@H]1CC[C@H]2[C@@H]3CC[C@H]4C[C@@](C)(O)CC[C@]4(C)C3=CC[C@]12C` [Compound C-30, 1-((1S,4R)-1-hydroxy-4-((3S,5S,8S,10S,13R,14S,17R)-3-hydroxy-3,10,13-trimethyl-2,3,4,5,6,7,8,10,12,13,14,15,16,17-tetradecahydro-1H-cyclopenta[a]phenanthren-17-yl)pentyl)cyclobutane-1-carbonitrile], for which the EC50 is, setting by setting: (Table C-2) 100 to 500 nM; (Table E-2) 100 to 500 nM.

For `C[C@H](CC[C@@H](O)C1(C#N)CCC1)[C@H]1CC[C@H]2[C@@H]3CC[C@H]4C[C@@](C)(O)CC[C@]4(C)C3=CC[C@]12C` [Compound C-31, 1-((1R,4R)-1-hydroxy-4-((3S,5S,8S,10S,13R,14S,17R)-3-hydroxy-3,10,13-trimethyl-2,3,4,5,6,7,8,10,12,13,14,15,16,17-tetradecahydro-1H-cyclopenta[a]phenanthren-17-yl)pentyl)cyclobutane-1-carbonitrile], the EC50 is, setting by setting: (Table C-2) 1 to 100 nM; (Table E-2) 1 to 100 nM.

Consider `C[C@H](CC[C@@H](O)C1(C#N)CC1)[C@H]1CC[C@H]2[C@@H]3CC[C@H]4C[C@@](C)(O)CC[C@]4(C)C3=CC[C@]12C` [Compound C-32, 1-((1R,4R)-1-hydroxy-4-((3S,5S,8S,10S,13R,14S,17R)-3-hydroxy-3,10,13-trimethyl-2,3,4,5,6,7,8,10,12,13,14,15,16,17-tetradecahydro-1H-cyclopenta[a]phenanthren-17-yl)pentyl)cyclopropane-1-carbonitrile], for which the EC50 reads like this: (Table C-2) 1 to 100 nM; (Table E-2) 1 to 100 nM.

Regarding `C[C@H](CC[C@H](O)C1(C#N)CC1)[C@H]1CC[C@H]2[C@@H]3CC[C@H]4C[C@@](C)(O)CC[C@]4(C)C3=CC[C@]12C` [Compound C-33, 1-((1S,4R)-1-hydroxy-4-((3S,5S,8S,10S,13R,14S,17R)-3-hydroxy-3,10,13-trimethyl-2,3,4,5,6,7,8,10,12,13,14,15,16,17-tetradecahydro-1H-cyclopenta[a]phenanthren-17-yl)pentyl)cyclopropane-1-carbonitrile], the EC50 by setting is: (Table C-2) 100 to 500 nM; (Table E-2) 100 to 500 nM.

With `C[C@H](CC[C@@H](O)C(C)(C)C#N)[C@H]1CC[C@H]2[C@@H]3CC[C@H]4C[C@@](C)(O)CC[C@]4(C)C3=CC[C@]12C` [Compound C-34, (3R,6R)-3-hydroxy-6-((3S,5S,8S,10S,13R,14S,17R)-3-hydroxy-3,10,13-trimethyl-2,3,4,5,6,7,8,10,12,13,14,15,16,17-tetradecahydro-1H-cyclopenta[a]phenanthren-17-yl)-2,2-dimethylheptanenitrile], the EC50 (Table C-2) is 1 to 100 nM and the EC50 (Table E-2) lay within 1 to 100 nM.
